How the values were obtained:
Experiment in all cases: Photodynamic effect in vitro, MTT test after irradiation
[1] = test system: highly-differentiated gallbladder carcinoma cell line (Wittier); assay type: cell-based, human; details: THPTPS 0.2, 0.4, 0.8 mg/ml for 12 hours, Ti:Sa laser 771 nm, 15 J/cm^2
Procedure: (§1) To examine the photodynamic effect in vitro, the above-mentioned cell lines were cultivated in a cell count of 2×10^5 C/ml in DMEM+10% FKS and incubated with the photosensitizer THPTPS in a concentration of 0.2, 0.4, 0.8 mg/ml (Wittier) or 0.4, 0.8, 1.6 mg/ml for 12 hours. Subsequently, they were irradiated with the light of a Ti:Sa leaser with a wavelength of 771 nm and a dose of 15 J/cm^2. […] Approximately 88% of the choroid melanoma cells were able to be killed by the irradiation.

[2] = test system: bile duct adenocarcinoma cell line (Charies), undifferentiated to a high degree; assay type: cell-based; details: THPTPS 0.4, 0.8, 1.6 mg/ml for 12 hours, Ti:Sa laser 771 nm, 15 J/cm^2
Procedure: as §1

choroid melanoma cells = assay type: cell-based; details: THPTPS 0.4, 0.8, 1.6 mg/ml for 12 hours, Ti:Sa laser 771 nm, 15 J/cm^2
Procedure: as §1

## 5,10,15,20-tetrakis-(1-alkyl-pyridyl)-21H, 23H-7,8,17,18-tetrahydroporphyrin-tetra-p-toluene sulphonate [THPTPS]
[1]
  cells dead (MTT test): approx. 88%
[2]
  cells dead (MTT test): approx. 84%
Choroid melanoma cells
  cells killed by the irradiation (MTT test): approx. 88%

— patent publication US6410568B1, “Porphyrins and their use as photosensitizer” (Astrid Schastak, priority 1998, dated 2002)
